Data on two molecules can be found in PMC12274739, “Differential substrate degradation by super-degron: EGFP in wild-type mouse cells, PD-1 requires CRBN humanization” (iScience, 2025).

Where “and” joins values, the source holds several entries; their conditions need not be identical. Equal entries are not always repeated. Where two headings read alike, the source gives them in different places.

Details of data set [1]: method as in PMID 32969202. The conditions noted are these: humans, cited from earlier work.
The nature of data set [2]: Histopathological examination of organs. The class given is in vivo, mouse. The conditions noted are these: Pdcd1SD/SD/CrbnI391V/I391V mice with MC-38 inoculation and IBR treatment. As to the method: The important functions of PD-1 are to suppress autoimmunity, and depletion or suppression of PD-1 leads to autoimmune diseases.[37]
Mice were sacrificed under deep anesthesia then all organs were isolated and immediately immersed in 10% buffered neutral formalin. After fixation for 48 h, tissues were processed as formalin-fixed paraffin-embedded blocks and sliced into 3 μmμ sections, followed by hematoxylin and eosin (HE) staining, periodic acid Schiff (PAS) staining, and Elastica-Masson Goldner staining. All slides were analyzed by a skilled pathologist (T.M.). Glomerular lesions were evaluated using the histological glomerular index, and other organs were scored from 0 (normal) to 3 (necrotic, severe organ injury).
Figure S11 Histological analysis of super degron tag-knockin mice for autoimmune […]
Representative histological manifestations of kidney (A-C), liver (D-F) and large intestine (G-I) of Pdcd1SD/SD/CrbnI391V/I391V mice (A, D and G), Pdcd1+/+/CrbnI391V/I391V mice (B, E and H) and […]
Liver and large intestine manifested normal histological findings in each group (A-C: PAS stain, d-i: HE stain, Bar = 25 µm in A-C, 100 µm in D-I).
(1 picture or pasted object on this page, not shown here)
Figure S12 Glomerular index of super degron tag-knockin mice
Glomerular index of each group of mice. […]
higher index nevertheless there were no statistically significant differences among

Data set [3] has as its target EGFP-ZFP91 (UniProt P42212+Q8C7D2, F64L/H231L/INS1V/S65T). The class given is cell-based, mouse. The conditions noted are these: read-out: DC50, EGFP-ZFP91, stable.
Data set [4] has as its system CD8+ and CD4+ T cells infiltrating the MC-38 microenvironment. Put plainly: Markers on T cells from MC-38 tumor microenvironment, flow cytometry day 9. The class given is in vivo, mouse. The method, then: Data are represented as mean ± standard error (SEM). The same experiment was repeated twice to confirm reproducibility. p-values were determined by two-way ANOVA multiple comparisons. ∗∗∗∗p < 0.0001 and ∗p = 0.0267. […] Data are represented as mean ± SEM. The same experiment was repeated twice to confirm reproducibility. p-values were determined by two-way ANOVA multiple comparisons. ∗∗∗∗p < 0.0001, ∗∗∗p = 0.0005, ∗∗p = 0.0067. […] Ratio of PD-1 positive cells and mean fluorescence intensity (MFI) of PD-1 (D), TIM-3 (E), and LAG-3 (F) on CD8^+ and CD4^+ T cells isolated from tumor microenvironments 9 days after the initiation of treatment are shown. Fluorescence intensity of each molecule was measured by flow cytometry, and the geometric MIFs of marker-positive cells were calculated. The data in two experiments were compiled. p-values were determined by the Brown-Forsythe and Welch ANOVA test. Different letters indicate statistically significant differences between groups (p < 0.05). Boxplots: hinges, 25th and 75th percentiles; middle line, median; whiskers, minimum to maximum value.
Next, the effects of SD-induced PD-1 reduction were compared with those of anti-PD-1 antibody treatment in vivo. […] CD3^+ T cells infiltrating the MC-38 microenvironment were analyzed on day 9 of treatment before the MC-38 tumor masses had shrunk with treatment and no longer provided sufficient T cells for FACS analyses.
Subsequently, we analyzed the proportion of exhaustion and activation marker-positive cells in each experimental group, as well as the expression levels of each marker in the marker-positive cells.
P-values were determined by one-way ANOVA with Tukey’s multiple comparisons. IBR: IBR-treated.
Samples are the same as Figure 7D. CrbnI391V/I391V mice were used for the experiments. Only PD-1 genotypes were shown in D. Pdcd1+/+/CrbnI391V/I391V control Ab: n = 11, Pdcd1+/+/CrbnI391V/I391V […]
E Expression analyses of PD-1, TIM-3, LAG-3, TIGIT and CX3CR1 on T cells by flow cytometry.
Cells in microenvironments were sorted by indicated gates. Dotted lines indicate isotype control. […]
PD-1 treatment. […] Different letters indicate statistically significant differences between groups (p < 0.05). Box plots: hinges, 25th and 75th percentiles; middle line, median; whiskers, minimum to maximum value.

Data set [5] has as its system EGFP-SD. Put plainly: Degradation of stably expressed EGFP-SD in human cell lines (hESCs, HEK293, Jurkat). The conditions noted are these: for bottom vs top, EGFP-SD: IBR up to 1 μM. The class given is cell-based.
Data set [6] deals with SD-EGFP (Mus musculus, UniProt P42212+Q8C7D2, F64L/H231L/INS1V/S65T, form not given). The class given is cell-based.
For data set [7], the system named is wild-type mESCs. Put plainly: Proteome assay in wild-type mESCs with IBR. The class given is cell-based, mouse. From the text:
Only SD was able to efficiently degrade EGFP even in the wild-type mouse cell lines. IKZF1/3 and several neo-substrates for CRBN were degraded in human cells but not in mouse cells, most likely because of the different amino acids in CRBN. However, the combination of SD and IBR or MZG degraded target proteins in both mouse and human cells. […] These 17 proteins are suspected to be novel substrates (data not shown). […] Moreover, general thalidomide analogs and CRBN have no neo-substrates in mouse cell lines.[25]

Data set [8] concerns EGFP-SD. It is filed as cell-based, mouse. The conditions noted are these: for ratio of bottom, mouse vs human cell line: EGFP-SD; for bottom vs top, EGFP-SD: IBR up to 1 μM.
For data set [9] the following is noted: cited from earlier work.
The test system of data set [10] is mouse PD-1-mCherry-Sall4 tag. The class given is cell-based, human. The conditions noted are these: Jurkat, 24 h.

Chain of EGFP-ZFP91 (Q8C7D2 whole entry, looked up, stated change not applied, other chains not shown): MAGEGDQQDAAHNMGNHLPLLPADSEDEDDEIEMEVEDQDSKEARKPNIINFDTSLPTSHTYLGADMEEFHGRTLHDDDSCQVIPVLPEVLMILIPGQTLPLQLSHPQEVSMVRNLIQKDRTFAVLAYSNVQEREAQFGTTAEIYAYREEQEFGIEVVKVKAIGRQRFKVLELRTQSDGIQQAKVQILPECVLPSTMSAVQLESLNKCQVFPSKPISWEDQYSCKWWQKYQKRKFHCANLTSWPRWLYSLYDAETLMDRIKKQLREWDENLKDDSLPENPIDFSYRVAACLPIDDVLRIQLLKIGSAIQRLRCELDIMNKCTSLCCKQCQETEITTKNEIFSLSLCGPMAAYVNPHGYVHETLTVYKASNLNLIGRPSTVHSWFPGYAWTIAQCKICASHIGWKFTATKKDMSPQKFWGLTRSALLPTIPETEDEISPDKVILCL

As for `O=C1CC[C@H](N2Cc3c(OCc4ccc(CN5CCOCC5)cc4)cccc3C2=O)C(=O)N1` [IBR, iberdomide], the “IBR present after 24 h, of the maximum concentration” value in data set [1] (multiple doses) is “about 20%”. For the same molecule, the “time of serum concentration peak” value in [1] (oral, single and multiple once-daily doses) is listed as 3 h. Further, in data set [1], the “serum concentration with multiple doses compared to a single dose” value is given as “doubles”. In addition, the histopathological organ injury entry in data set [2] is “no significant organ injury”. In addition, the DC50 in data set [3] (B6J-S1 mESCs, Figure 5B) came out at 20.9 nM; in [3] (CrbnI391V/I391V mESCs, Figure 5E), 0.834 nM; in data set [5] (HEK293, stable), 0.00545 nM; in data set [5] (Jurkat, stable), 0.0118 nM; in [5] (human ESCs, stable), 0.00278 nM; in data set [8] (EL4, stable), 0.0755 nM. Further, the DC50 stood at 0.079 nM in [8] (NIH3T3, stable) and 0.221 nM in data set [8] (mouse ESCs, stable). Moreover, in [4] (IBR: Pdcd1SD/SD/CrbnI391V/I391V, cell ratio and expression level, antibody: Pdcd1+/+/CrbnI391V/I391V, expression level), the “TIM-3 in CD8+ T cells vs untreated” value was “decreased”. In addition, the “CX3CR1 in CD8+ T cells vs untreated” value in data set [4] (IBR: Pdcd1SD/SD/CrbnI391V/I391V, antibody: Pdcd1+/+/CrbnI391V/I391V, CX3CR1+ cell ratio) is “comparable between IBR-treated and untreated groups”. The “LAG-3 and TIGIT in CD8+ T cells vs untreated” value in data set [4] (IBR: Pdcd1SD/SD/CrbnI391V/I391V, antibody: Pdcd1+/+/CrbnI391V/I391V, expression level) is given as “remained comparable”. Further, in data set [4] (Pdcd1SD/SD/CrbnI391V/I391V), the “LAG-3 expression levels in CD4+ T cells” value is given as “higher than those in the untreated group”. In addition, in [4] (Pdcd1SD/SD/CrbnI391V/I391V, day 9), the “PD-1 expression level in PD-1+ CD8+ T cells vs untreated” value is listed as “significant reduction”. In addition, the “frequency / number of T cells infiltrating the MC-38 microenvironment” value in data set [4] (day 9 of treatment) is “did not differ”. Besides, the “Bottom, EGFP-SD” value in data set [5] (HEK293, stable) is 0.01028; in data set [5] (Jurkat, stable), 0.02414; in [5] (human ESCs, stable), 0.007522; in data set [8] (EL4, stable), 0.04356; in data set [8] (NIH3T3, stable), 0.03706; in [8] (mouse ESCs, stable), 0.02573. The “bottom vs top, EGFP-SD” value in data set [5] (HEK293, stable) was determined as 0.009; in [5] (Jurkat, stable), 0.024; in data set [5] (human ESCs, stable), 0.005; in data set [8] (EL4, stable) it was 0.057; in data set [8] (NIH3T3, stable) it was 0.049; in [8] (mouse ESCs, stable), 0.085. In [6], the “bottom vs top, SD-EGFP” value was 0.186 and 0.153 and 0.146 and 0.15 and 0.19. Besides, in data set [6], the “level to which SD-EGFP was suppressed” value is listed as 20%. Also, the “downregulation of 11 EGFP-bound candidate proteins” value in data set [7] (exogenously expressed in mESCs) is “none of them were downregulated by IBR”. Moreover, in [7] (wild-type mESCs, proteome assay, data not shown), the “number of proteins with reduced expression” value is on record as 17. For the same molecule, the “ratio of bottom, mouse vs human cell line” value was 1.804 in [8] (EL4 vs Jurkat) and 3.605 in [8] (NIH3T3 vs HEK293). Besides, the “level to which EGFP-SD was suppressed” value in data set [8] (mouse wild-type cell lines, IBR approximately 10^−2 μM to 10^−3 μM) is given as 10%.

Consider `Nc1cccc2c1C(=O)N(C1CCC(=O)NC1=O)C2=O` (stereo not shown) [POM, pomalidomide], for which the “blood-brain barrier (BBB) passage” value in data set [9] is “passes through the BBB”. Moreover, the “Bottom, PD-1 (FITC)” value in data set [10] (SALL4 tag, surface PD-1, no reagent = 1) amounted to 0.9333. Besides, the “effect on protein levels” value in data set [10] (Sall4 tag) is on record as “did not reduce protein levels”.
